Source: patent US11382925B2, “Agent for treating retinal disease” (CARNA HEALTH SUPPORT LTD., priority 2017, dated 2022)

Columns and labels:
SGLT2 = target: T1, SGLT2 (Homo sapiens, UniProt P31639); details: cited from earlier work
T1 sequence (P31639 1-672): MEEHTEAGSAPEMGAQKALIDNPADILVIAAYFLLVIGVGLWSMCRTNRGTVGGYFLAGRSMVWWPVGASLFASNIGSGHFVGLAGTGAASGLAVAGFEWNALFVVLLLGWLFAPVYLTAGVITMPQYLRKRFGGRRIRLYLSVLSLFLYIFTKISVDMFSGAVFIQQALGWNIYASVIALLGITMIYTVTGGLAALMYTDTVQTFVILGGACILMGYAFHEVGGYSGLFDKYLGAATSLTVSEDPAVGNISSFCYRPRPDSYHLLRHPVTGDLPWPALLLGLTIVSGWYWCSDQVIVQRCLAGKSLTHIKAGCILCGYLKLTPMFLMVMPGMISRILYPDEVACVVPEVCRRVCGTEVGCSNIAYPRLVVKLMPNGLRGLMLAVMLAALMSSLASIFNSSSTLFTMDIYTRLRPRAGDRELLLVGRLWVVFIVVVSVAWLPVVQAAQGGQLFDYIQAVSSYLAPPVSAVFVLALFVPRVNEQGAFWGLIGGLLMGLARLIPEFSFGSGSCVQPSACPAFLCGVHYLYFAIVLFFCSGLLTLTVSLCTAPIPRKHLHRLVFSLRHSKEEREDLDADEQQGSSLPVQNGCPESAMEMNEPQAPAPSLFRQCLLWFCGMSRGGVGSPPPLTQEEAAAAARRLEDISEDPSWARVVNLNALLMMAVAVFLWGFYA

[1] = authorized minimum dosage amount; compared with canagliflozin; cited from earlier work
[2] = tested on: retina of an age-related maculopathy mouse model; assay: Hematoxylin-Eosin staining of retina, thickness of outer granular layer, in age-related maculopathy mouse model; assay type: in vivo, BALB/c mice; details: vs non-administered AMD mouse
Procedure: FIG. 4 is a graph showing the thickness of outer granular layer (including visual cells) of the retina of an age-related maculopathy mouse model in numeral terms. […] “***” represents P<0.005 vs control mouse, “#” and “##” each represents P<0.05 vs Ipragliflozin non-administered AMD mouse, and P<0.01 vs Ipragliflozin non-administered AMD mouse, respectively.
(§1) To BALB/c mice, light irradiation (8000 lux, 10 hours) was performed, and then the mice were bred for one week. The existing SGLT2 inhibitor agent ipragliflozin was orally administered in an amount of 0.03 mg/kg/day and 0.1 mg/kg/day for four days including the day of light irradiation. The effects on body weight and blood sugar were confirmed. These models are widely used as age-related maculopathy models.

[3] = Preliminary test: body weight, blood sugar and urinal sugar in light-irradiated age-related maculopathy mouse model; assay type: in vivo, BALB/c mice; details: AMD mouse; for change in body weight as compared to when not administering ipragliflozin: light irradiation 8000 lux 10 hours, bred one week
Procedure: as §1
FIGS. 1 and 2 show the results of body weight and blood sugar levels when administering the existing SGLT2 inhibitor agent ipragliflozin at 0.03 mg/kg/day and 0.1 mg/kg/day.

[4] = 0.03 mg/kg/day orally for four days
[5] = 0.1 mg/kg/day orally for four days

SMILES | IC50 level showing the inhibition activity, compared with canagliflozin (SGLT2) | maximum blood concentration (Cmax) in the minimum dosage amount, relative to that of canagliflozin [1] | also measured
OC[C@H]1O[C@@H](c2ccc(Cl)c(Cc3ccc(O[C@H]4CCOC4)cc3)c2)[C@H](O)[C@@H](O)[C@@H]1O [empagliflozin] | similar | approximately 1/10 | 
O=C(O)[C@@H]1CCCN1.OC[C@H]1O[C@@H](c2ccc(F)c(Cc3cc4ccccc4s3)c2)[C@H](O)[C@@H](O)[C@@H]1O [ipragliflozin L-proline] | similar | similar | 
OC[C@H]1O[C@@H](c2ccc(F)c(Cc3cc4ccccc4s3)c2)[C@H](O)[C@@H](O)[C@@H]1O [ipragliflozin] |  |  | thinning of membrane shown in retina of AMD mouse (thickness of outer granular layer) ([2]; 0.03 mg/kg/day orally): significantly ameliorated; thinning of membrane shown in retina of AMD mouse (thickness of outer granular layer) ([2]; 0.1 mg/kg/day orally): significantly ameliorated; change in urinal sugar as compared to when not administering ipragliflozin ([3]; 0.03 mg/kg/day and 0.1 mg/kg/day orally for four days): no change was observed; change in blood sugar as compared to when not administering ipragliflozin [3, 4]: no change was observed; change in body weight as compared to when not administering ipragliflozin [3, 4]: no change was observed; change in blood sugar as compared to when not administering ipragliflozin [3, 5]: no change was observed; change in body weight as compared to when not administering ipragliflozin [3, 5]: no change was observed
CCOc1ccc(Cc2cc([C@@H]3S[C@H](CO)[C@@H](O)[C@H](O)[C@H]3O)c(OC)cc2C)cc1 [luseogliflozin hydrate] | similar | approximately 1/10 | 
CCc1ccc(Cc2ccc3c(c2)[C@]2(OC3)O[C@H](CO)[C@@H](O)[C@H](O)[C@H]2O)cc1 [tofogliflozin hydrates, tofogliflozin hydrate] | similar | approximately 1/10 | 
